Tests used:
[1] = system: zebrafish embryo; assay: zebrafish embryo phenotype (pigmentation, morphology); assay type: in vivo
[2] = system: 158 GPCRs; assay: Millipore GPCR profiling, agonist and antagonist activity; assay type: cell-based; settings: 10 μM
[3] = system: zebrafish embryo; assay: foxD3 in situ hybridization of neural crest progenitors; settings: in vivo
Protocol: In situ hybridization was performed as previously described (Westerfield, 2000). Zebrafish foxD3 probes were synthesized as previously described (Stewart et al., 2006).
To identify if neural crest progenitors were perturbed by OGM, foxD3 staining was performed. This identified no difference. […] The views on the right show a magnification of the indicated area, with arrows showing positive staining along the dorsal ridge of the embryo.

[4] = system: A2058 melanoma cell line; assay: scratch assay for migration, A2058; assay type: cell-based, human; settings: OGM 5 μM, EIPA 10 μM, 20 hours
Protocol: (§1) Cells were grown to confluence and the cells were denuded with a P200 tip. A medium change was done to add fresh medium, remove loose cells and add compounds OGM (5 μM) and EIPA (10 μM). The area of the scratch was observed 20 hours later.
(§2) Since there are numerous parallels are found between neural crest cells and cancer during migration, we examined whether OGM could inhibit the migration of cells in human melanoma cell lines (Oppitz et al., 2007; Schriek et al., 2005; Sinnberg et al., 2018). […] A2058, MeWo and WM115 cells were grown to confluence and a stripe of cells were denuded with a p200 pipette tip “scratch” and rinsed with PBS. Cells were treated with OGM or EIPA, or DMSO and incubated in low serum media. Imaging was done at 30 minutes after “scratch” and then 20 hours afterwards. Areas were then measured and normalized to the initial area.
(§3) Previous studies with the MV3 melanoma cell line have shown that disruption of proton efflux with EIPA inhibition of NHE1 can also reduce melanoma motility (Ludwig et al., 2013; Schneider et al., 2009; Stock et al., 2007, 2005; Stüwe et al., 2007). […] Although the expression of GPR68 and other proton-sensing receptors have been characterized in various skin cancers (Merkel cell carcinoma, dermatofibrosarcoma protuberans, atypical fibroxanthoma, and pleomorphic dermal sarcoma), expression in melanoma cell lines has not investigated (Nassios et al., 2019).

[5] = system: MeWo melanoma cell line; assay: scratch assay for migration, MeWo; assay type: cell-based, human; settings: OGM 5 μM, EIPA 10 μM, 20 hours
Protocol: as §1, §2, §3

[6] = system: WM115 melanoma cell line; assay: scratch assay for migration, WM115; assay type: cell-based, human; settings: OGM 5 μM, EIPA 10 μM, 20 hours
Protocol: as §1, §2, §3

[7] = system: WM115 cells; assay: agarose drop assay (3D model of melanoma extravasation); assay type: cell-based, human; settings: 5 μM, 5 days
Protocol: WM115 cells were trypsinized and resuspended at 100,000 cells per mL in low melt agarose. A 10 μl drop of the cell mixture was added to 12-well plate. After solidifying Normal culture media was added with either DMSO 0.5% or OGM 5 μM. The area around the agarose drop was visualized manually with light microscopy. The cells were incubated for 5 days and visualized. Cells outside of the agarose drop were visualized and quantitated.
FIG. 8A is a schematic of the agarose drop assay. WM115 cells were mixed into a low melt agarose solution and single 10 μL drops were seeded onto cell culture plates. After solidifying, media containing OGM (5 μM) or CTL (DMSO […]) was added and wells were observed 5 days later. Immediately after media addition no cells are on the plate outside of the agarose gel in CTL or OGM. Five days after seeding cells are observed outside of the gel (Black arrows) in CTL but not in OGM. […] Quantification on the number of cells that escaped from an average of 5 gel drop replicates. FIG. 8B through FIG. 8F show the cells after media addition. No cells are on the plate outside of the agarose gel in CTL or OGM. Five days after seeding, cells are observed outside of the gel (arrows) in CTL but not in OGM.

[8] = molecular target: GPR68-GFP (Homo sapiens (Human), UniProt Q15743); assay: SRE-luciferase assay, GPR68-GFP transfected HEK293T; assay type: cell-based; settings: 10 μM
Protocol: (§4) 12-well plates of cells were transfected with 1 μg DNA using Lipofectamine 3000 with sre:luciferase and either GFP, GPR68-GFP or 336X-GFP. After 3 days, these cells were then lysed, and cell extracts were subjected to Steady-Glo luciferase assay (Promega™) according to the manufacturer's instructions. The results were normalized to cell titer, as determined using Cell Titer-Glo luminescence assay (Promega™).
(§5) Loss of internalization can indicate loss of activity or loss of the ability to internalize through beta-arrestin. […] Compared to GFP controls, GPR68-GFP and 336X-GFP transfected cells had higher levels of activity. (n=3 biological replicates done in triplicate). Furthermore, the activity of the truncation variant was still inhibited by OGM. […]

[9] = molecular target: 336X-GFP (Homo sapiens (Human), UniProt Q15743); assay: SRE-luciferase assay, 336X-GFP truncation variant transfected HEK293T; assay type: cell-based; settings: 10 μM
Protocol: as §4
A deletion between amino acid 336 and the beginning of GFP was generated from the MCSV:GPR68-GFP plasmid using the Q5 mutagenesis kit (NEB).
as §5

[10] = system: U87 glioblastoma cell line; assay: 2D cell viability (cell titer blue), U87; assay type: cell-based; settings: U87, 72 hours
Protocol: (§6) Temozolomide is the standard of care for glioblastoma but only works on 30% of patients. Temozolomide sensitive U87 (FIG. 17A) and Temozolomide insensitive U138 (FIG. 17B) glioblastoma cell lines were plated in 96-well plates and exposed to increasing doses of either Temozolomide or OGM2. The viability of cells was assayed using cell titer blue after 72 hours, and data was normalized to DMSO vehicle control. See results in FIG. 17.

[11] = system: U138 glioblastoma cell line; assay: 2D cell viability (cell titer blue), U138; assay type: cell-based; settings: U138, 72 hours
Protocol: as §6

[12] = system: U87 glioblastoma cell line; assay: 3D tumor spheroid growth, U87; assay type: cell-based; settings: U87, 5 days of treatment
Protocol: (§7) Tumor spheroid cultures are a more physiological model of tumor growth than typical 2D cell culture. Temozolomide sensitive U87 (FIG. 18A) and Temozolomide insensitive U138 (FIG. 18B) glioblastoma cell lines were plated in low attachment round bottom 96-well plates and allowed to form tumor spheroids for 3 days (T0). At T0, spheroids were imaged using Lionheart™ (HCS) High-Content Imaging Systems (Biotek™) and then were exposed to increasing doses of either Temozolomide or OGM2. After 5 days of treatment the spheroids were imaged again (T5). The size (area) of the spheroids after 5 days of treatment was quantified, and the average size of the spheroids at T0 is depicted in red.

[13] = system: U138 glioblastoma cell line; assay: 3D tumor spheroid growth, U138; assay type: cell-based; settings: U138, 5 days of treatment
Protocol: as §7

[14] = system: U87 cells; assay: clonogenicity of U87 cells (crystal violet); assay type: cell-based; settings: 0.1-2 uM, 12 days
Protocol: U87 cells were plated at 400 cells per well in a 6-well plate and on the next day were treated with increasing concentrations of OGM2 for 12 days. The doses were 0 uM (DMSO control) 0.1 μM 0.5 uM, 1 uM, 1.5 uM and 2 uM, as labelled. The plate was fixed with formalin and stained with crystal violet.

336X-GFP, sequence (Q15743 1-335): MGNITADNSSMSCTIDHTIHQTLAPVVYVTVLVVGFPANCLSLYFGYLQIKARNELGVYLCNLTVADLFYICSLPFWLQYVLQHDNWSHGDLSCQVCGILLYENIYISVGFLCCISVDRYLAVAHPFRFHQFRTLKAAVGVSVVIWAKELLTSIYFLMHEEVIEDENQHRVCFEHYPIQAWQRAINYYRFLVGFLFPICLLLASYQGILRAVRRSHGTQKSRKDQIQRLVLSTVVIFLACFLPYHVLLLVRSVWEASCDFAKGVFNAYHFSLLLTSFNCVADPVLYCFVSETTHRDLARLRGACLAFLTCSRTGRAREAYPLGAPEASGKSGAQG
GPR68-GFP, sequence (Q15743 whole entry): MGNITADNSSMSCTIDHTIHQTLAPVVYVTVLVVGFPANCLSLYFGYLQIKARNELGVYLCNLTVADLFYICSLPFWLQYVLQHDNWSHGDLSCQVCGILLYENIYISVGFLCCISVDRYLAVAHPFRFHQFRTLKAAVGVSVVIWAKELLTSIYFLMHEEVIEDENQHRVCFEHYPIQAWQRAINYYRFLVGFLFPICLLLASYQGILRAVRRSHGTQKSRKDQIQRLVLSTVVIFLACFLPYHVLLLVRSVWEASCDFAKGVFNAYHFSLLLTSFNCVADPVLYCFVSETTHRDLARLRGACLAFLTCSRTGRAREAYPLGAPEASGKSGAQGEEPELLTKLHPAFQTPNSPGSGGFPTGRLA

SRE-luciferase activity [8]: reduced the level of luciferase activity | SRE-luciferase activity [9]: reduced the level of luciferase activity
Structure (SMILES): CCc1ccc2c(c1)C1(NN=C(c3cccc4ccccc34)S1)C(=O)N2 (stereo not drawn) [OGM, 5-ethyl-5′-naphthalen-1-ylspiro[1H-indole-3,2′-3H-1,3,4-thiadiazole]-2-one]
induced morphological phenotype ([1]; OGM 10 uM, 48 hours pf): induced ventral curvature, wavy notochord, shortened body axis, craniofacial defects, and loss of retinal iridophores | time window of pigmentation defect ([1]; temporal phenotypic analysis, treatment windows 0-36 hours pf): dependent on treatment during the 12 hours pf-18 hours pf time window | agonist and antagonist activity against 158 GPCRs [2]: Only GPR68, LPA1 and GPR14 (UT2R) showed significant activity | foxD3 staining of neural crest progenitors [3]: no difference | migration in scratch assay [4]: inhibited migration | migration in scratch assay [5]: inhibited migration | migration in scratch assay [6]: inhibited migration | migration out of agarose drop [7]: migrated significantly less | viability versus Temozolomide [10]: more effective than Temozolomide | viability versus Temozolomide [11]: more effective than Temozolomide | spheroid size versus Temozolomide [12]: more effective than Temozolomide | spheroid size versus Temozolomide [13]: more effective than Temozolomide | clonogenicity [14]: Reduces Clonogenicity
